Measured values published in US11236047B2 (ASTEX THERAPEUTICS LIMITED, priority 2017, dated 2022).
Read-outs that look alike come from different tables or passages of the source.

Columns and labels:
[1] = target: MDM2-p53 interaction (Homo sapiens (Human), UniProt Q00987); conditions: for inhibition at 0.1 µM: read-out: MDM2 % inhibition @0.10; for inhibition at 0.001 µM: read-out: MDM2 % inhibition @0.0010; for inhibition at 0.03 µM: read-out: MDM2 % inhibition @0.030
[2] = test system: SJSA-1 cells (p53 wild-type, MDM2 amplified osteosarcoma); assay: Protocol A: SJSA-1 growth inhibition (sulphorhodamine B); conditions: read-out: SJSA-1 IC50 (μM) (Protocol A); SJSA-1, Protocol A
[3] = test system: SN40R2 cells; assay: Protocol B: SN40R2 CellTiter-Glo luminescent cell viability assay
[4] = test system: SJSA-1 cells; assay: Protocol B: SJSA-1 CellTiter-Glo luminescent cell viability assay
[5] = test system: SN40R2 cells (p53 mutated, MDM2 amplified osteosarcoma); assay: Protocol A: SN40R2 growth inhibition (sulphorhodamine B); conditions: for inhibition at 50 µM: read-out: SN40R2 % inhibition at 50
[6] = read-out: SN40R2 % inhibition at 10, Protocol B, SN40R2, at 10 μM
[7] = read-out: SJSA1 IC50, Protocol B, SJSA-1
[8] = read-out: SN40R2 % inhibition at 10
[9] = Homo sapiens, SJSA-1, read-out: SJSA1 IC50 (μM), Protocol B, SJSA-1

Sequence of MDM2-p53 interaction (Q00987 whole entry): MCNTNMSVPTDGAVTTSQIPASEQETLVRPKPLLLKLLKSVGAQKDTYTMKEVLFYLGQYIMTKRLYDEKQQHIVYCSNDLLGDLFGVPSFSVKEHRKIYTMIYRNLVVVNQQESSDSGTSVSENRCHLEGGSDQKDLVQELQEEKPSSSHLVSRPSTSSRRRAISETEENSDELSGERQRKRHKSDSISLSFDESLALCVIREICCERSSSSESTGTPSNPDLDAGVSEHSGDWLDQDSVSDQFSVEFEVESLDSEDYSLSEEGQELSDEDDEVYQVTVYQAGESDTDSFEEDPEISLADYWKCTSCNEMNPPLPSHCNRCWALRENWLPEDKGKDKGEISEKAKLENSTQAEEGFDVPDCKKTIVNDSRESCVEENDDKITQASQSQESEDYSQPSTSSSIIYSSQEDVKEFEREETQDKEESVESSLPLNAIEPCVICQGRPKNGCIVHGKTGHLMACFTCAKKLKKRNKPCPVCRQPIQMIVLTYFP

IC50 [4, 7] | inhibition at 0.001 µM [1] | SMILES | inhibition at 10 µM [3, 6] | inhibition at 50 µM [5] | also measured
 |  | CO[C@]1(c2ccc(Cl)cc2)c2ccc(C(C)(O)CN3CCNC3=O)cc2C(=O)N1Cc1ccc(Cl)cn1 (single isomer, unassigned) [Example 157] |  |  | MDM2 % at stated concentration ([1]; at 0.30 μM): 39%@0.30; IC50 [2]: 6.4 µM
 |  | CO[C@]1(c2ccc(Cl)cc2)c2ccc(C(C)(O)CN3CCNC3=O)cc2C(=O)N1Cc1ccc(Cl)cn1 (single isomer, unassigned) [Example 158] |  |  | MDM2 % at stated concentration ([1]; at 0.10 μM): 57%@0.10; IC50 [2]: 1.2 µM
 |  | CO[C@]1(c2ccc(Cl)cc2)c2ccc(C(C)(O)CN3CCOCC3=O)cc2C(=O)N1Cc1ccc(Cl)cn1 (single isomer, unassigned) [Example 327] |  |  | MDM2 % at stated concentration ([1]; at 0.30 μM): 42%@0.30; IC50 [2]: 9.3 µM
2.8 µM |  | CCC(O)(c1cc(F)c2c(c1)C(=O)N(Cc1ccc(C#N)cn1)[C@@]2(O[C@H]1CCOC1)c1ccc(Cl)cc1)c1ccn(C)n1 (single isomer, unassigned) [Example 335] | 7% |  | inhibition at 0.1 µM [1]: 51%
 | 59% | CCC(O)(c1cc(F)c2c(c1)C(=O)N(Cc1ccc(C#N)cn1)[C@@]2(OCCOC)c1ccc(Cl)cc1)c1cn(C)cn1 (single isomer, unassigned) [Example 430] | 4% | 33% | 
0.16 µM | 48% | CCC(O)(c1cc(F)c2c(c1)C(=O)N(Cc1ccc(C#N)nc1)[C@@]2(O[C@H]1CCOC1)c1ccc(Cl)cc1)c1cn(C)cn1 (single isomer, unassigned) [Example 431] | 5% | 39% | 
 | 80% | CCC(O)(c1cc(F)c2c(c1)C(=O)N(Cc1ncc(C#N)cn1)[C@@]2(OCC1(C#N)CC1)c1ccc(Cl)cc1)c1cn(C)cn1 (single isomer, unassigned) [Example 462] | 4% | 37% | 
1.3 µM |  | CCC(O)(c1cc(F)c2c(c1)C(=O)N(Cc1ncc(Cl)cn1)[C@@]2(O[C@H]1CCOC1)c1ccc(Cl)cc1)c1cn(C)cn1 (single isomer, unassigned) [Example 474] | 12% |  | inhibition at 0.03 µM [1]: 38%
0.022 µM | 71% | CCC(O)(c1cc(F)c2c(c1)C(=O)N(Cc1ncc(Cl)cn1)[C@@]2(O[C@H]1CCOC1)c1ccc(Cl)cc1)c1cn(C)cn1 (single isomer, unassigned) [Example 475] |  | 46% | 
0.6 µM |  | CCC(O)(c1cc(F)c2c(c1)C(=O)N(Cc1ncc(Cl)cn1)[C@@]2(OCC1(CO)CC1)c1ccc(Cl)cc1)c1cn(C)cn1 (single isomer, unassigned) [Example 476] | 4% |  | inhibition at 0.03 µM [1]: 51%
0.01 µM | 82% | CCC(O)(c1cc(F)c2c(c1)C(=O)N(Cc1ncc(Cl)cn1)[C@@]2(OCCO)c1ccc(Cl)cc1)[C@H]1CC[C@H](O)CC1 (single isomer, unassigned) [Example 517] |  | 26% | 
0.13 µM | 64% | CCC(O)(CN1CCNCC1)c1cc(F)c2c(c1)C(=O)N(Cc1ncc(Cl)cn1)[C@@]2(OCC1(C#N)CC1)c1ccc(Cl)cc1 (single isomer, unassigned) [Example 536] | 46% |  | 
2.2 µM |  | CCC(O)(CN1CCNCC1)c1cc(F)c2c(c1)C(=O)N(Cc1ncc(Cl)cn1)[C@@]2(OCC1(F)COC1)c1ccc(Cl)cc1 (single isomer, unassigned) [Example 538] | 43% |  | inhibition at 0.03 µM [1]: 44%
1.8 µM |  | CCC(O)(c1cc(F)c2c(c1)C(=O)N(Cc1ncc(Cl)cn1)[C@@]2(O[C@H]1CCOC1)c1ccc(Cl)cc1)C1(F)CCNCC1 (single isomer, unassigned) [Example 540] | 62% |  | inhibition at 0.03 µM [1]: 33%
 | 74% | CN1CCC(C(C)(O)c2cc(F)c3c(c2)C(=O)N(Cc2ncc(Cl)cn2)[C@@]3(OCC2(CO)CC2)c2ccc(Cl)cc2)CC1 (single isomer, unassigned) [Example 554] | 11% | 46% | 
 |  | CC(C)(O)c1cc(F)c2c(c1)C(=O)N(Cc1ccc(Cl)cc1)[C@@]2(OCC1(CO)CC1)c1ccc(Cl)cc1 [Example 2, (3R)-3-(4-chlorophenyl)-2-[(4-chlorophenyl)methyl]-4-fluoro-3-{[1-(hydroxymethyl)cyclopropyl]methoxy}-6-(2-hydroxypropan-2-yl)-2,3-dihydro-1H-isoindol-1-one] |  |  | IC50 ([5]; 72 h, read-out: SN40R2 IC50 (μM) (Protocol A)): 17 µM
 |  | CCC(O)(c1cc(F)c2c(c1)C(=O)N(Cc1ncc(Cl)cc1O)[C@@]2(OCCO)c1ccc(Cl)cc1)c1cn(C)cn1 (stereo partly drawn) [Example 443, (3R)-2-[(5-chloro-3-hydroxypyridin-2-yl)methyl]-3-(4-chlorophenyl)-4-fluoro-6-[1-hydroxy-1-(1-methyl-1H-imidazol-4-yl)propyl]-3-(2-hydroxyethoxy)-2,3-dihydro-1H-isoindol-1-one] |  |  | inhibition at 10 µM [3, 8]: 3%; IC50 ([5]; read-out: SN40R2 IC50 (μM)): 38 µM; IC50 [4, 9]: 0.093 µM
0.051 µM | 59% | CCC(O)(c1cc(F)c2c(c1)C(=O)N(Cc1ncc(Cl)cn1)[C@@]2(OCC1(C(N)=O)CC1)c1ccc(Cl)cc1)c1cn(C)cn1 (stereo partly drawn) [Example 486, 1-({[(1R)-1-(4-chlorophenyl)-2-[(5-chloropyrimidin-2-yl)methyl]-7-fluoro-5-[1-hydroxy-1-(1-methyl-1H-imidazol-4-yl)propyl]-3-oxo-2,3-dihydro-1H-isoindol-1-yl]oxy}methyl)cyclopropane-1-carboxamide] |  | 10% | 
 | 87% | CC[C@@](O)(c1cc(F)c2c(c1)C(=O)N(Cc1ncc(C#N)cn1)[C@@]2(O[C@H]1CCOC1)c1ccc(Cl)cc1)C1CCC(O)CC1 (stereo partly drawn) [Example 503, 2-{[(1R)-1-(4-chlorophenyl)-7-fluoro-5-{1-hydroxy-1-[trans-4-hydroxycyclohexyl]propyl}-3-oxo-1-[(3S)-oxolan-3-yloxy]-2,3-dihydro-1H-isoindol-2-yl]methyl}pyrimidine-5-carbonitrile] | 13% |  | IC50 [4, 9]: 0.011 µM
 |  | CC[C@](O)(c1cc(F)c2c(c1)C(=O)N(Cc1ncc(C#N)cn1)[C@@]2(O[C@H]1CCOC1)c1ccc(Cl)cc1)C1(F)CCOCC1 [Example 508, 2-{[(1R)-1-(4-chlorophenyl)-7-fluoro-5-[(1S)-1-(4-fluorooxan-4-yl)-1-hydroxypropyl]-3-oxo-1-[(3S)-oxolan-3-yloxy]-2,3-dihydro-1H-isoindol-2-yl]methyl}pyrimidine-5-carbonitrile] | 9% |  | inhibition at 0.1 µM [1]: 17%; inhibition at 10 µM ([4]; Homo sapiens, SJSA-1, read-out: SJSA1 % inhibition at 10): 11%
 | 79% | CCC(O)(c1cc(F)c2c(c1)C(=O)N(Cc1ncc(C#N)cn1)[C@@]2(OCCO)c1ccc(Cl)cc1)[C@H]1CC[C@H](O)CC1 (stereo partly drawn) [Example 510, 2-{[(1R)-1-(4-chlorophenyl)-7-fluoro-5-{1-hydroxy-1-[trans-4-hydroxycyclohexyl]propyl}-1-(2-hydroxyethoxy)-3-oxo-2,3-dihydro-1H-isoindol-2-yl]methyl}pyrimidine-5-carbonitrile] | 9% | 5% | 
 |  | [2H]C([2H])(O)C1(C([2H])([2H])O[C@]2(c3ccc(Cl)cc3)c3c(F)cc(C(C)(C)O)cc3C(=O)N2Cc2ncc(C#N)cn2)CC1 [Example 513, 2-{[(1R)-1-(4-chlorophenyl)-7-fluoro-1-({1-[hydroxydideuteromethyl]cyclopropyl}dideuteromethoxy)-5-(2-hydroxypropan-2-yl)-3-oxo-2,3-dihydro-1H-isoindol-2-yl]methyl}pyrimidine-5-carbonitrile] | 4% | 19% | 
 | 81% | CC[C@@](O)(c1cc(F)c2c(c1)C(=O)N(Cc1ncc(C#N)cn1)[C@@]2(O[C@H]1CCOC1)c1ccc(Cl)cc1)C1CCN(C)CC1 [Example 557, 2-{[(1R)-1-(4-chlorophenyl)-7-fluoro-5-[(1S)-1-hydroxy-1-(1-methylpiperidin-4-yl)propyl]-3-oxo-1-[(3S)-oxolan-3-yloxy]-2,3-dihydro-1H-isoindol-2-yl]methyl}pyrimidine-5-carbonitrile] | 6% |  | inhibition at 10 µM [5, 8]: 37%
 | 76% | CC[C@@](O)(c1cc(F)c2c(c1)C(=O)N(Cc1ncc(Cl)cc1O)[C@@]2(O[C@H]1CCOC1)c1ccc(Cl)cc1)C1CCN(C)CC1 [Example 568, 2-[(5-chloro-3-hydroxypyridin-2-yl)methyl]-3-(4-chlorophenyl)-4-fluoro-6-[(1S)-1-hydroxy-1-(1-methylpiperidin-4-yl)propyl]-3-[(3S)-oxolan-3-yloxy]-2,3-dihydro-1H-isoindol-1-one] | 36% |  | 

SMILES | IC50 [4, 7] | inhibition at 0.001 µM [1] | inhibition at 10 µM [3, 6] | inhibition at 50 µM [5] | also measured
CCC(O)(c1cc(F)c2c(c1)C(=O)N(Cc1ccc(C#N)cn1)[C@@]2(O[C@H]1CCOC1)c1ccc(Cl)cc1)C1(F)CCOCC1 (stereo partly drawn) [Example 446, 6-{[(1R)-1-(4-chlorophenyl)-7-fluoro-5-[1-(4-fluorooxan-4-yl)-1-hydroxypropyl]-3-oxo-1-[(3S)-oxolan-3-yloxy]-2,3-dihydro-1H-isoindol-2-yl]methyl}pyridine-3-carbonitrile] | 0.023 µM |  |  |  | IC50 ([5]; read-out: SN40R2 IC50 (μM)): 29 µM
